Data as given in patent publication US5451571A (The Cleveland Clinic Foundation, priority 1994, dated 1995).
Entries after “also recorded” stand apart in the source; their conditions may differ. Read-outs that look alike come from different tables or passages of the source. Residues, ends and D or L forms follow the SMILES beside them. No end group written: not given here. *: point of attachment. Cbz = O=C(OCc1ccccc1)*

Experiments:
[1] = tested on: spontaneously hypertensive rats (SHR); test: Blood angiotensin peptides (RIA) after i.v. Ang I in conscious SHR with enzyme inhibitors; assay type: in vivo, rat
Method: (§1) All experiments were carried out in strict adherence to the principles sponsored by the American Physiological Society. Male 16-week-old SHR(319±4 gm) and WKY(315±4 gm) controls (Charles River, Wilmington, Mass.) were housed in rooms maintained on a 12 hr light-dark cycle. Animals ate a solid diet of rat chow (Purina, Bedford, Ohio) and had free access to water. Cannulas (PE-50 and PE-10, Clay Adams Becton Dickinson, Parsippany, N.J.) were implanted into a femoral artery and vein using aseptic conditions in rats anesthetized with 1% halothane 24 hours beforehand. The free ends of the cannulas were tunneled under the skin and externalized at the back of the neck.
(§2) Conscious rats were divided into five groups. Group I (n=4 SHR and 4 WKY) received an i.v. injection of 0.9% NaCl. Group II (n=4 SHR and 4 WKY) was given an i.v. injection of enalaprilat (MK-422,2 mg/kg). Group III (n=4 SHR and 4 WKY) was injected with (N-{N-[1-(S)-carboxy-3-phenylpropyl]-(S)-phenylalanyl}-(S)-isoserine) at a dose of 15 mg/kg. […] Group IV (n=4 SHR and 4 WKY) received both MK-422 (2 mg/kg) and SCH 39,370 (15 mg/kg). Group V (n=3 SHR and 3 WKY) were given MK- 422 (2 mg/kg) and Z-prolyl-prolinal (5 mg/kg), a specific inhibitor of prolyl endopeptidase (Friedman TC, Orlowski M, Wilk S: Prolyl Endopeptidase: Inhibition in vivo by N-benzyloxycarbonyl-prolyl-prolinal. J. Neurochem. 42:237-241,1984). Either saline (vehicle) or the enzyme inhibitors were administered 20 minutes before an i.v. injection of 0.2 ml of Ang I (2 nmol) in heparinized saline. Serial samples of arterial blood (0.2 ml) were rapidly collected into ice-chilled tubes containing 5 ml of 80% ethanol/0.1N HCL every 15-30 sec before and after injection of Ang I. The amount of blood removed in each sample was replaced with an equal volume of saline. The dead space (0.08 ml) of the femoral artery catheter was cleared of any remaining saline or blood before obtaining the samples.
(§3) Peptide Extraction and Analyses: Samples were centrifuged at 5,000 g for 20 minutes; the supernatant was stored for 12 hours at -20° C. After a second centrifugation step (10,000 g, 20 min) the supernatant was diluted 1:1 (V:V) with 1% heptaflurobutyric acid (HFBA), stored for 4-6 […] hours at 4° C., and centrifuged again at 15,000 g. This supernatant was further diluted 1:4 with 0.2% HFBA and concentrated on a Sep-Pak Vac Cartridge (Millipore Co., Milford, Mass.) activated beforehand with 3 ml of 60% acetonitrile/0.2% HFBA, 3 ml of 0.1% bovine serum albumin in 0.2% HFBA, and 5 ml of HFBA. After application of the supernatant, the column was washed with 10 ml of 0.2% HFBA. Angiotensin peptides were eluted with 8 ml of 60% acetonitrile/0.2% HFBA. Fractions were evaporated to dryness in a vacuum centrifuge (Savant Instrument Inc., Hicksville, N.Y.) for measurements by radioimmunoassay (RIA). Different aliquots of the samples were assayed to ensure linearity. Peptide recovery for Ang I added to the acid ethanol solution prior to blood sample averaged 85±4%, n=6, SFM): peptide values were not corrected for recovery. Moreover, no in vitro conversion of Ang I into either Ang-(1-7) or Ang II was observed.
(§4) The RIAs employed by the inventors to determine concentrations of Ang I, Ang II, and Ang-(1-7) are described in detail elsewhere. See, Chappell MC, Brosnihan KB, Diz DI, Ferrario CM: Identification of Angiotensin-(1-7) in Rat Brain: Evidence for Differential Processing of Agiotensin Peptides. J. Biol. Chem. […]:16518-16523,1989; and, Kohara K, Brosnihan KB, Chappell MC, Khosla MC, Ferrario CM: Angiotensin-(1-7): A Member of Circulating Angiotensin Peptides. Hypertension 17:131-138, 1991. […] The sensitivity of the Ang I assay (defined as twice the minimum detection level) averaged 5 fmol/tube. The Ang II antibody was produced by the inventors. […] The sensitivity of the Ang II RIA is 0.5 fmol/tube. The antibody of Ang-(1-7) (Core No. 1) was obtained in the inventors laboratory. […]

ACE = ACE (Homo sapiens, UniProt P12821); details: cited from earlier work
Chain of ACE (P12821 30-1306, species assumed): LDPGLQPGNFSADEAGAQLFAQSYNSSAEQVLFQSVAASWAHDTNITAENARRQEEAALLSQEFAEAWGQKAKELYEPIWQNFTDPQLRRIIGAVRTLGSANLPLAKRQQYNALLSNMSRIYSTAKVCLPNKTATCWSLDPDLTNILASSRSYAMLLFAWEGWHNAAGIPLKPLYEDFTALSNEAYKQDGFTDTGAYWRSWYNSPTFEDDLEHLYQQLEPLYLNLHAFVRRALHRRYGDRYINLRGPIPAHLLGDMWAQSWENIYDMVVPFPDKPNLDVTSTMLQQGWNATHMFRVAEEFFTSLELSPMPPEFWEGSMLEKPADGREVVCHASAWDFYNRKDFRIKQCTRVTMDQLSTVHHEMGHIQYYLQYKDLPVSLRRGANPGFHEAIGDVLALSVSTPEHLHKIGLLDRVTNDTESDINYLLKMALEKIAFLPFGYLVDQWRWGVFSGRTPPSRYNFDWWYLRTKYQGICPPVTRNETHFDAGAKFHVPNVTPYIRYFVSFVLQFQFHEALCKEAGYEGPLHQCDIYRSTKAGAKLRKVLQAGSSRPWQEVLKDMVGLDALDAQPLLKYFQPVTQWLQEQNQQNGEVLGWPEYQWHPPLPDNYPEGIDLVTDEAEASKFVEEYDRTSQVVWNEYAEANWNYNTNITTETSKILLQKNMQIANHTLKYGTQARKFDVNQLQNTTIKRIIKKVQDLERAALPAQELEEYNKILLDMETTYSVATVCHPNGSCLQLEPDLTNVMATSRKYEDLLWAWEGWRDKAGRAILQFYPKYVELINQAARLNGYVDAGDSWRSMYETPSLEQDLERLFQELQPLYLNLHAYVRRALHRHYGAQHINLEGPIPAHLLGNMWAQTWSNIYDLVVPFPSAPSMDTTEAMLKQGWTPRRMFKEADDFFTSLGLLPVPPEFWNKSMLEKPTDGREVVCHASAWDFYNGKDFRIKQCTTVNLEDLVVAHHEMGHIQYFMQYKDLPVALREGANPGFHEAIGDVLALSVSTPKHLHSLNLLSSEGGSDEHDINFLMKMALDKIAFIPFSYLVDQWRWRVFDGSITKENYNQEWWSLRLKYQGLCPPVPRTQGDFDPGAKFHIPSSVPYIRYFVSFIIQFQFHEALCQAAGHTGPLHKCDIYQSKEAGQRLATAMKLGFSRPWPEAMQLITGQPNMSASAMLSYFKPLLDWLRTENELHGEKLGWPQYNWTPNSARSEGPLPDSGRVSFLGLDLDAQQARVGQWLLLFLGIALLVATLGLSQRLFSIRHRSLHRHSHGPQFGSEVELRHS

NEP 24.11 [2] = details: cited from earlier work
SHR = test: Blood pressure effect of SCH 39,370 in SHR; assay type: in vivo, rat
carboxypeptidase A = target: T1, carboxypeptidase A (Homo sapiens, UniProt P15085); details: cited from earlier work
T1 sequence (P15085 111-419): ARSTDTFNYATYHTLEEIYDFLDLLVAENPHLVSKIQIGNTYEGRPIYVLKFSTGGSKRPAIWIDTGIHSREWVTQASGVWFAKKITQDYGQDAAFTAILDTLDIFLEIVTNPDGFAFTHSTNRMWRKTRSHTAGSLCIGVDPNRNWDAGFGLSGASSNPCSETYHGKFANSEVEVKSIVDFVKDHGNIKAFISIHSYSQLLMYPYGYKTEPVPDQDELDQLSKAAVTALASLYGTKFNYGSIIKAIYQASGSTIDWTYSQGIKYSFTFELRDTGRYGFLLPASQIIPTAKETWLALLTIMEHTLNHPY

[3] = tested on: DOCA-salt hypertensive rats; details: cited from earlier work
Wistar Kyoto (WKY) rats = test: Blood angiotensin peptides (RIA) after i.v. Ang I in conscious WKY with enzyme inhibitors; assay type: in vivo, rat
Method: as §1, §2, §3, §4

[4] = cultured mouse spinal cord cells; details: cited from earlier work
NEP 24.11 [5] = details: human; cited from earlier work
human urine = details: cited from earlier work
swine urine = details: cited from earlier work
vascular smooth muscle = details: cited from earlier work
[6] = preparations of synaptic membranes from the rat brain; details: cited from earlier work
[7] = tested on: vascular smooth muscle cultures (VSMC) from normotensive (WKY) rats; test: 125I-Ang I metabolism by intact vascular smooth muscle cultures of WKY (HPLC); assay type: cell-based, rat; details: for effect on the levels of 125I-Ang-(1-7) / inhibition of the formation of 125I-Ang-(1-7) from 125I-Ang I: 10 μM
Method: (§6) Aortic smooth muscle cells were isolated according to the following general process. The adventia and outer third medial layer were removed from segments (2 cm^2) of the thoracic aorta from SHR or WYK rats, minced into 1 cm^2 pieces and allowed to adhere on plastic for 15 minutes. The explants were incubated with Dulbecco's modified Eagles' medium (DMEM, Irvine Scientific CO., Irvine, Calif.) diluted 1:1 with F12 (Irvine Scientific) and supplemented with 10% fetal calf serum and 1% penicillin/streptomyocin in a humid atmosphere of 95% air, 5% CO2 at 37° five days and the tissues were removed after a halo of cells appeared around the explant. […] The culture medium was changed daily for the three days and thereafter, every third day. The smooth muscle cells were evaluated both for their morphological appearance and their recognition of a monoclonal antibody to smooth muscle-type alpha actin (A 2547, Sigma Chemical, St. Louis, MO).
(§7) For metabolism studies, cell monolayers (passage 4 to 6) in 24 well plates were washed twice with 1.0 ml of Krebs-Ringer solution (125 mM NaCl, 5 mM KCl, 1.0 mM CaCl2, 1.2 mMMgSO4, 25 mM HEPES, pH 7.4 and 6 mM glucose). Intact cells were incubated with ^125 I-Ang I (0.2-0.4 nM, final concentration) both in the presence and absence of enzyme inhibitors in 0.25 ml of Krebs buffer at 37° C. At selected time points, aliquots (0.05 ml) were withdrawn from the well, diluted in 0.15 ml 80% acetonitrile (ACN)/0.2% heptafluorobutyric acid (HFBA) stored at -80° C. prior to analysis by high performance liquid chromatography (HPLC). In addition, 0.20 ml of the medium, exposed to the cells for 60 minutes were incubated with ^125 I-Ang I for 60-120 minutes at 37° C. and analyzed by HPLC.
(§8) ^125 I-products were characterized by HPLC using a heptafluorobutyric acid (HFBA) solvent system. This system consisted of 0.13% HFBA (mobile phase A) and 80% ACN/0.13% HFBA (mobile phase B) and the analysis was performed on a Kratos 400 HPLC equipped with a Waters Nova-Pak C18 column (Waters, MA, 2.1×15 mm) and an Aquapore column (Waters, MA, 2.1×15 mm) and an Aquapore C8 guard column (Applied Biosystems, 3.2×1.5 mm). The gradient conditions consisted of 20-50% B Linear (30 min) and 50% B isocratic (10 min) at a flow rate of 0.3 ml/min at room temperature. HPLC fractions were collected every 0.5 min and counted in a gamma counter. Products were identified by comparison of their retention times to those of standard ^125 I-angiotensin peptides. To further assess the identity of each radioactive peak, either the incubation samples or ^125 I-products were rechromatographed using a trifluoracetic acid (TFA) solvent. This system consisted of 0.1% TFA, pH 4.5 (mobile phase A) and 60% ACN/0.1% TFA pH 4.5 (mobile phase B). A linear gradient of 15-45% B (30 min) and 45% B isocratic (10 min) at 0.3 ml/min at room temperature was performed on the HPLC system described above.
(§9) Statistics: Differences in the generation of ^125 I-peptides under various conditions were assessed by analyses of variance followed by Newman Keuls multiple comparison test. The criterion for statistical significance was set at p<0.05.

[8] = tested on: vascular smooth muscle cultures (VSMC) from spontaneously hypertensive rats; details: for effect on the levels of 125I-Ang-(1-7) / inhibition of the formation of 125I-Ang-(1-7) from 125I-Ang I: 10 μM
Method: as §6, §7, §8, §9

[9] = mammals; cited from earlier work
[10] = tested on: spontaneously hypertensive rats (SHR); test: Third ventricle push-pull perfusion in SHR, MAP and HR; assay type: in vivo, rat
Method: (§5) In order to assess the effectiveness of Z-Proprolinal, the specific inhibitor of prolyl endopeptidase, in controlling blood pressure the following study was conducted. […] Similar studies were performed in age-matched normotensive Wistar-Kyoto control rats (WKY) (obtained from Taconic Farms, New York).

[11] = tested on: normotensive Wistar-Kyoto control rats (WKY); test: Third ventricle push-pull perfusion in WKY, MAP and HR; assay type: in vivo, rat
Method: as §5

prolylendopeptidase = target: T2, prolylendopeptidase (Canis lupus familiaris, UniProt A0A8I3N6C8); test: 125I-Ang-(1-7) production from 125I-Ang I in dog hypothalamus homogenates (HPLC); assay type: biochemical; details: DTT 1 mM
T2 construct: from tissue; host or cells: dog hypothalamus homogenate, 10,000 g supernatant
T2 sequence (A0A8I3N6C8 1-710): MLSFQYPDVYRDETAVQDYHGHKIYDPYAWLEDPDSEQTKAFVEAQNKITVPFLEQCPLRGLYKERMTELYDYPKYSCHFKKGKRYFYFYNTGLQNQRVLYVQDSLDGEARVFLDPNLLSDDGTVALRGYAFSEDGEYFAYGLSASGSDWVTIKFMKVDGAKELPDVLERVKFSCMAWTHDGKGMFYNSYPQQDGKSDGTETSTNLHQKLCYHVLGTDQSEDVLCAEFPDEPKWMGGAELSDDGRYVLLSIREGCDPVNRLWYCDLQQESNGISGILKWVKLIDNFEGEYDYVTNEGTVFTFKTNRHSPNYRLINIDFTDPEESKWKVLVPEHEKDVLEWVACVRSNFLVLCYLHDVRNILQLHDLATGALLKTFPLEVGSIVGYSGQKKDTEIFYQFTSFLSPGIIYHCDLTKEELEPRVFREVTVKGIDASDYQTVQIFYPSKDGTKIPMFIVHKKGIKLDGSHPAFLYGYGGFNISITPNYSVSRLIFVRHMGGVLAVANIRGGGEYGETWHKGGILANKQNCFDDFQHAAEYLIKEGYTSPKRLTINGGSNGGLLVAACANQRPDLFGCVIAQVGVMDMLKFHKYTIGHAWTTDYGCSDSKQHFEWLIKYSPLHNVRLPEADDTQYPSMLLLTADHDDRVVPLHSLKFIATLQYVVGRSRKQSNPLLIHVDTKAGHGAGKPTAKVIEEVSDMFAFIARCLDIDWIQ
Method: As a result of these discoveries, the enzyme(s) involved in the production of Ang-(1-7) in homogenates (20 mM TRIS HCl buffer, pH 7.5) of dog hypothalamus were evaluated.

[12] = supernatants of dog brain tissue punch homogenates (ACE activity assay); details: mongrel dogs, 37° C., up to 15 minutes

O=C(O)[C@H](CCc1ccccc1)N[C@@H](Cc1ccccc1)C(=O)NC[C@H](O)C(=O)O [SCH 39,370, N-{N-[1-(S)-carboxy-3-phenylpropyl]-(S)-phenylalanyl}-(S)-isoserine]
reduction of peak levels of Ang-(1-7) below vehicle ([1]; SHR): 74%
peak level of Ang I in blood ([1]; SHR, 15 seconds after Ang I 2 nmol i.v., saline (label Ang I) or SCH 39,370 15 mg/kg 20 minutes before): 6.2 ± 0.4 pmol/mL
peak level of Ang II in blood ([1]; SHR, 15 seconds after Ang I 2 nmol i.v., saline (label Ang I) or SCH 39,370 15 mg/kg before): 27.2 ± 3.8 pmol/mL
change of baseline and peak plasma levels of Ang II ([1]; SHR, SCH 39,370): double
formation / levels of Ang-(1-7) versus vehicle ([1]; SHR, SCH 39,370 15 mg/kg alone, difference statistically significant): decreased; also recorded: inhibited the formation of Ang-(1-7)
baseline level of Ang II ([1]; SHR, after SCH 39,370 15 mg/kg, before 0.02±0.02): 0.18 ± 0.04 pmol/mL
inhibition of Ang-(1-7) production at larger doses ([1]; preliminary experiments, doses above 15 mg/kg, strain not stated): no further inhibition
inhibition of ACE (ACE): does not inhibit
inhibition of NEP 24.11 (NEP 24.11 [2]): specific and potent inhibitor
effect on blood pressure (SHR): did not reduce blood pressure
inhibition of carboxypeptidase A (carboxypeptidase A): does not inhibit
effect on blood pressure [3]: antihypertensive effects
reduction of peak levels of Ang-(1-7) below vehicle (Wistar Kyoto (WKY) rats): 51%
peak level of Ang I in blood (Wistar Kyoto (WKY) rats; 15 seconds after Ang I 2 nmol i.v., saline (label Ang I) or SCH 39,370 15 mg/kg 20 minutes before): 4.3 ± 0.4 pmol/mL
peak level of Ang II in blood (Wistar Kyoto (WKY) rats; 15 seconds after Ang I 2 nmol i.v., saline (label Ang I) or SCH 39,370 15 mg/kg before): 21.8 ± 5.4 pmol/mL
change of baseline and peak plasma levels of Ang II (Wistar Kyoto (WKY) rats; SCH 39,370): double
formation of Ang-(1-7) versus vehicle (Wistar Kyoto (WKY) rats; SCH 39,370 15 mg/kg alone, difference not significant (p>0.05)): inhibited the formation of Ang-(1-7)
baseline level of Ang II (Wistar Kyoto (WKY) rats; after SCH 39,370 15 mg/kg, before 0.04±0.02): 0.12 ± 0.04 pmol/mL

Asp-Arg-Val-Tyr-Ile-His-Pro-Phe
fragment found [4]: Angiotensin-(1-7)
cleaved bond (NEP 24.11 [5]): Tyr4-Ile5
fragment found (human urine): Angiotensin-(1-7)
fragment found (swine urine): Angiotensin-(1-7)
fragment found (vascular smooth muscle): Angiotensin-(1-7)
fragment found [6]: Angiotensin-(1-7)

O=S(=O)(O)c1cc[c]([Hg][Cl])cc1 [PCMS, p-chloromercuriphenylsulfonate acid]
inhibition of 125I-Ang-(1-7) levels ([7]; 1 μM, data not shown): to a similar extent as that observed with cPF-AAF-pAB
inhibition of 125I-Ang-(1-7) levels ([8]; SHR VSMC, 1 μM, data not shown): to a similar extent as that observed with cPF-AAF-pAB

O=C[C@@H]1CCCN1C(=O)[C@@H]1CCCN1C(=O)OCc1ccccc1 [ZPP, N-benzyloxycarbonyl-prolylprolinal] (Cbz-Pro-Pro-aldehyde)
blood-brain barrier (BBB) passage [9]: readily traverses the blood-brain barrier
fall in MAP in response to depolarizing K+ after ZPP pretreatment ([10]; K+ alone -19±4 mmHg): did not change the magnitude of the fall in MAP
HR response to depolarizing K+ after ZPP pretreatment ([10]; K+ alone -32±7 beats/min): attenuated
decrease in mean arterial pressure ([10]; ZPP 1 μM perfusion of third ventricle, n=13, basal MAP 156±5 mmHg): -37±4 mmHg
heart rate (HR) with ZPP perfusion ([10]; ZPP 1 μM, from 384±10): 376±19 beats/min
effect on either MAP or HR ([11]; WKY (n=13), ZPP 1 μM): no effect
MAP with ZPP perfusion ([11]; WKY, ZPP 1 μM, from 99±6): 100±7 mmHg
HR with ZPP perfusion ([11]; WKY, ZPP 1 μM, from 379±18): 368±27 beats/min
reduction in MAP by K+ in the presence of ZPP ([11]; WKY, K+ alone -16±3 mmHg): -6±4 mmHg
reduction in HR by K+ in the presence of ZPP ([11]; WKY, K+ alone -37±7 beats/min): -13±8 beats/min
effect on the levels of 125I-Ang-(1-7) [7]: no effect
effect on the levels of 125I-Ang-(1-7) ([8]; SHR VSMC): no effect

O[C@@H](CS)[C@@H](O)CS [DTT]
increase in the rate of generation of Ang-(1-7) (prolylendopeptidase): about three fold

His-Leu
not cleaved [12]: hydrolysis of the product His-Leu was less than 6%

O=C(O)CNC(=O)C(CS)Cc1ccccc1 (stereo not drawn) [thiorphan]
effect on the levels of 125I-Ang-(1-7) [7]: no effect
effect on the levels of 125I-Ang-(1-7) ([8]; SHR VSMC): no effect

C[C@H](NC(=O)[C@H](C)NC(CCc1ccccc1)C(=O)O)C(=O)N[C@@H](Cc1ccccc1)C(=O)Nc1ccc(C(=O)O)cc1 (stereo partly drawn) [cFP-AAF-pAB, Carboxyphenylpropyl-alanyl-alanyl-phenylalanyl-para-aminiobenzoate]
inhibition of the formation of 125I-Ang-(1-7) from 125I-Ang I [7]: 90%
inhibition of the formation of 125I-Ang-(1-7) from 125I-Ang I ([7]; listed as cPf-AAF-pAB): over 90%
inhibition of the formation of 125I-Ang-(1-7) from 125I-Ang I ([8]; SHR VSMC): 90%
inhibition of the formation of 125I-Ang-(1-7) from 125I-Ang I ([8]; SHR VSMC, listed as cPf-AAF-pAB, 10 µM): over 90%

^125 I-Ang I: 125I-labelled Ang I used as substrate (DRVYIHPFHL; also: 125I label; UniProt P01019 25-34, looked up)
125I-Ang-(1-7) generation as share of the total 125I-Ang I metabolism [8]: 65-80%
main peptide product in the medium [8]: ^125 I-Ang-(1-7)
